Values joined by “and” are separate entries in the source; they are usually repeats but may differ in a detail not shown here. Equal entries are not always repeated. “Also recorded” adds a separate entry of the source. Where two headings read alike, the source gives them in different places.
Assays:
[1] = target: T1, CB2 receptor on B-cells (Homo sapiens, UniProt P34972); assay: In vitro target engagement: CB2 surface expression on peripheral B cells in whole blood (flow cytometry); type: cell-based; details: for Emax: read-out: Mean Emax ± SD (%)
T1 construct: B cells show a low but robust surface expression of CB2; endogenous in cells; host or cells: B cells in human whole blood (healthy participants, diabetic patients)
T1 sequence (P34972 whole entry): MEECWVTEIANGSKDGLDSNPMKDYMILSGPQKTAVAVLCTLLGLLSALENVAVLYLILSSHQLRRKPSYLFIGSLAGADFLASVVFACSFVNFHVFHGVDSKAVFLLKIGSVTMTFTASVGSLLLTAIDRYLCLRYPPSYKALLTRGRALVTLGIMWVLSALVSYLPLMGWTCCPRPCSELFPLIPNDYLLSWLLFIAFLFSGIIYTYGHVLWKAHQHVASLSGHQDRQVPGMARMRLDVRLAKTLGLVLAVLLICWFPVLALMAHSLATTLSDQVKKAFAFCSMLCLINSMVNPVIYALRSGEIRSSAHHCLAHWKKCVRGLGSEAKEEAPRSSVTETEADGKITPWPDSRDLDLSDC
Excerpt: To monitor target engagement by RO6868847 in humans, a flow cytometry assay was developed utilizing an in-house monoclonal anti-human CB2 antibody in combination with established blood cell markers (CD45, CD14, CD3, and CD19) (1078220). […] As with most GPCR agonists, RO6868847 is expected to trigger CB2 receptor internalization upon CB2 activation, resulting in decreased surface detection. In order to establish this measure as a surrogate target engagement biomarker, freshly isolated whole blood samples (n=9) from healthy participants were incubated in duplicates in vitro for 1 hour at 37° C. with eight different increasing concentrations of RO6868847 and were subsequently subjected to the flow cytometry assay (1078220).
The availability of this in vitro target engagement assay also enabled us to explore the target engagement—exposure response in blood samples obtained from patients with diabetic mellitus (Type 1 and Type 2) and healthy controls matched for age, gender and BMI (Table 6) (1097891). This population was selected as it is similar to the envisaged target patient population for the proof-of-concept Phase II trial, encompassing diabetic patients according to definition by the World Health Organization and/or the American Diabetes Association.

[2] = test system: 15-lipoxygenase, MAGL, diacylglycerol lipase, or FAAH enzymes; assay: Functional cellular assays, enzymes of the endocannabinoid pathway; type: cell-based; details: up to 500 μM in human targets
[3] = Study BP40387 Part 3 (MAD) pharmacokinetics, once daily for 14 days;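 note: phase I trial BP40387 in healthy male and female volunteers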
Protocol: (§2) Study BP40387 was a Phase I study that was conducted in healthy male and female participants, and included 5 parts. Part 1 (SAD) consisted of an adaptive, single-ascending-dose, investigator/participant-blind, randomized, placebo-controlled, parallel study to investigate the safety, tolerability, and pharmacokinetics of RO6868847. Part 2 (FE), was designed as an open-label, randomized, two-period crossover, single dose investigation of the effect of food on the pharmacokinetics of RO6868847. Part 3 (MAD), was an adaptive, multiple-ascending-dose, investigator/participant-blind, randomized, placebo-controlled, parallel study to investigate the safety, tolerability, and pharmacokinetics of RO6868847 administered once-daily for 14 days. Part 4 (DDI-CYP Induction), was a non-randomized, open-label, fixed-sequence, two-period study to explore RO6868847-mediated CYP induction at 300 mg administered once-daily for 14 days, using midazolam, repaglinide, and bupropion as probe substrates for CYP3A, CYP2C8, and CYP2B6, respectively. […] Overall, in Part 1 (SAD), a total of 33 healthy participants received single oral doses of RO6868847 ranging between 0.75 mg and 300 mg, and 12 participants received placebo under fasting conditions. In Part 2 (FE), 8 participants received a single oral dose of 100 mg RO6868847 once after an overnight fast of at least 10 hours and once within 30 minutes after starting a high-calorie, high-fat breakfast. In Part 3 (MAD), a total of 30 participants received multiple oral doses of 6 mg to 300 mg RO6868847 QD for 14 days, and 10 participants received placebo.

[4] = clinical; details: both, human, plasma, oral
Protocol: as §2

[5] = Stability of drug substance; type: physicochemical
Protocol: (§1) For Phase I, film-coated tablets for oral administration containing 0.05, 0.75, 10, or 100 mg of RO6868847 drug substance were developed for clinical use. Three placebo film-coated tablets were formulated to match the active film-coated tablets in size and in appearance: one size to match the active 0.05 and 0.75 mg film-coated tablets and one size each to match the active 10 and 100 mg film-coated tablets.

[6] = test system: 78 additional receptors and ion channels; assay: Radioligand binding assays on additional receptors and ion channels
[7] = target: T2, cynomolgus monkey CB2 (Macaca fascicularis, UniProt G7NVV5); assay: Radioligand binding to CB2, CHO cells
T2 sequence (G7NVV5 1-360): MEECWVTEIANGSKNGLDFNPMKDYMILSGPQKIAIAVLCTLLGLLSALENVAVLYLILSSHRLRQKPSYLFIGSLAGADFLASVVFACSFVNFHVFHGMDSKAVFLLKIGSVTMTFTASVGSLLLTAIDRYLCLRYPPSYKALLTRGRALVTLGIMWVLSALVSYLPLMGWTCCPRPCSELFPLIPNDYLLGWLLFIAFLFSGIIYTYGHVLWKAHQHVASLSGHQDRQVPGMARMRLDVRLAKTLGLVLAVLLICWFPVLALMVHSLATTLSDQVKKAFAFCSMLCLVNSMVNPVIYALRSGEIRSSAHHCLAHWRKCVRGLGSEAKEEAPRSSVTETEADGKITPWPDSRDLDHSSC

[8] = target: T2, cynomolgus monkey CB2; assay: Forskolin-stimulated cAMP inhibition in stably transfected CHO cells; type: cell-based
Excerpt: Inhibition of cAMP accumulation in Chinese hamster ovary cells stably expressing recombinant CB2 was used to determine the functional potency of RO6868847 for different CB2 species and the selectivity over the closely related CB1. […] Table 4 summarizes the potency from different CB2 species.

[9] = Solubility of drug substance; type: physicochemical
Protocol: as §1

[10] = test system: 131 targets along with 57 CNS- and abuse potential-specific targets; assay: In vitro pharmacology profile on target panels; details: 30 μM
Protocol: The in vitro pharmacology profile of RO6868847 was evaluated at concentration of 30 μM on panels including 131 targets along with 57 CNS- and abuse potential-specific targets.

[11] = target: human CB1 (Homo sapiens, UniProt P21554); assay: Human CB1 binding assay
Sequence of human CB1 (P21554 whole entry): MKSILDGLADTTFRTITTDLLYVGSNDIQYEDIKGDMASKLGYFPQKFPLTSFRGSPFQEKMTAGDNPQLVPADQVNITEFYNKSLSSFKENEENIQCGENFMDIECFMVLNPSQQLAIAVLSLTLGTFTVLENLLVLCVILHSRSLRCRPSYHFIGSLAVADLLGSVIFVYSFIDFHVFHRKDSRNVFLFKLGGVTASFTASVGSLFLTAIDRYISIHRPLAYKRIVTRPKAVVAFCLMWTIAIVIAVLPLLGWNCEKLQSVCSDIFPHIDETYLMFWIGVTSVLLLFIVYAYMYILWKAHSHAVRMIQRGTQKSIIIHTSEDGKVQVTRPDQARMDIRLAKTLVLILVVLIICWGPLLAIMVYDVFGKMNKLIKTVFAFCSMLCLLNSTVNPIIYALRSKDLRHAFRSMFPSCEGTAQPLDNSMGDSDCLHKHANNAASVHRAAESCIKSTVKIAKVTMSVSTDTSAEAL

[12] = target: T3, human CB2 (Homo sapiens, UniProt P34972); assay: Radioligand binding to CB2, CHO cells expressing recombinant CB2
T3 construct: expressed in transfected cells; host or cells: CHO cells
T3 sequence (P34972 whole entry): as the sequence (P34972 whole entry) above

Which results are given for `Cn1nnnc1Cn1nnc2c(N3CC[C@H](O)C3)nc(C(C)(C)C)nc21` [RO6868847, (3S)-1-[5-tert-butyl-3-[(1-methyltetrazol-5-yl)methyl]triazolo[4,5-d]pyrimidin-7-yl]pyrrolidin-3-ol]?
Fold change vs HPs ([1]; DM): 1.8x; Emax ([1]; DM, n = 8): 56.2 ± 11.7%; Fold change vs HPs ([1]; Healthy Participants): 1; CB2 surface expression on B-cells ([1]; Healthy Participants, n = 9): concentration-dependent reduction of CB2 surface expression on B-cells; Mean Emax ± SD (%) ([1]; Healthy Participants, n = 9): 55.0 ± 4.6 (n = 9) %; Emax ([1]; Healthy Participants, n = 9): 55 ± 4.6%; Fold change vs HPs ([1]; Matched Healthy): 2.6 x; Emax ([1]; Matched Healthy, n = 8): 55.7 ± 6.8%; IC50 ([1]; Mean IC50 (CB2 on B-cells) ± SD (nM), DM, n = 8, one outlier excluded): 172 ± 82 nM; IC50 ([1]; Mean IC50 (CB2 on B-cells) ± SD (nM), Healthy Participants, n = 9, 1 hour at 37° C.): 96.5 ± 27.1 nM; IC50 ([1]; Mean IC50 (CB2 on B-cells) ± SD (nM), Matched Healthy, n = 8): 253 ± 206 nM; fold higher concentration/exposure required for similar CB2R target engagement ([1]; diabetic and matched (elderly) healthy vs younger healthy participants): 2-3 fold and ~3 fold; CB2 receptor internalization on the surface of B-cells ([1]; diabetic patients and matched healthy participants): dose-dependent CB2 receptor internalization; IC50 ([1]; mean IC50 (TE), Healthy participants, 9 donors, converted): 96.5 nM; activity at endocannabinoid pathway enzymes [2]: no activity; time dependence of pharmacokinetics ([3]; in vivo): absence of relevant PK time dependencies; also recorded: no evidence of time-dependent pharmacokinetics; time to steady state ([3]; once-daily dosing): approximately after the second day of dosing; also recorded: approximately after the second day of treatment; accumulation of Cmax and AUCtau ([3]; once-daily dosing, independent of dose): only minor accumulation; half-life [4]: 8.27 to 39 h; AUC ([4]; 6 mg): 870 ng·h/mL; Cmax ([4]; 6 mg): 97.9 ng/mL; half-life ([4]; 6 mg): 8.27 h; AUC ([4]; 20 mg): 2610 ng·h/mL; Cmax ([4]; 20 mg): 289 ng/mL; Tmax ([4]; 20 mg): 1.06 h; half-life ([4]; 20 mg): 15 h; AUC ([4]; 60 mg): 8480 ng·h/mL; Cmax ([4]; 60 mg): 899 ng/mL; Tmax ([4]; 60 mg): 2 h; half-life ([4]; 60 mg): 31.6 h; AUC ([4]; 200 mg): 21400 ng·h/mL; Cmax ([4]; 200 mg): 2380 ng/mL; Tmax ([4]; 200 mg): 3 h; AUC ([4]; 300 mg): 27100 ng·h/mL; Cmax ([4]; 300 mg): 2970 ng/mL; Tmax ([4]; 300 mg): 2.5 h; half-life ([4]; 300 mg): 39 h; stability to temperature stress [5]: fairly stable; stability to light ([5]; solid state and solution): stable to light; selectivity for CB2 [6]: excellent selectivity for CB2; IC50 [7]: 103 ± 17.2 nM; Ki ([7]; read-out: Ki ± SE): 66.8 nM; IC50 ([8]; CHO cells): 1.06 ± 0.08 nM; Emax ([8]; CHO, normalized to 10 μM CP55′940): 94.6%; solubility in aqueous solutions [9]: slightly soluble; solubility in organic solvents [9]: moderate to good solubility; selectivity for CB2 in panels [10]: high selectivity for CB2 in all the panels; Ki [11]: > 10000 nM; CB1/CB2 Ratio (binding selectivity) ([11]; CB1 Ki over CB2 Ki): >195 fold; affinity for human CB1 ([11]; highest concentration of 10 μM): no affinity; IC50 [12]: 117 ± 26.3 nM; Ki [12]: 51.3 nM

Reference: patent publication US20250195528A1, “DOSE REGIMEN OF VICASINABIN” (Hoffmann-La Roche Inc., priority 2022, published 2025)
